Data: PubChem BioAssay (NCI)
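Assay format: 96-well plates, 48-hour exposure. TGI: total growth inhibition.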

Experiments:
Experiment in all cases: growth of human tumour cells (NCI), 48 h
HCT-15 colon = system: HCT-15 colon
LOX IMVI melanoma = system: LOX IMVI melanoma
SF-295 CNS = system: SF-295 CNS
SK-OV-3 ovarian = system: SK-OV-3 ovarian
NCI-H522 lung = system: NCI-H522 lung
HOP-62 NSCLC = system: HOP-62 NSCLC
NCI-H226 lung = system: NCI-H226 lung
COLO 205 colon = system: COLO 205 colon
UO-31 renal = system: UO-31 renal
T-47D breast = system: T-47D breast
786-0 renal = system: 786-0 renal
SF-268 CNS = system: SF-268 CNS
SNB-19 CNS = system: SNB-19 CNS
HOP-92 NSCLC = system: HOP-92 NSCLC

SMILES | TGI (HCT-15 colon) | TGI (LOX IMVI melanoma) | TGI (SF-295 CNS) | TGI (SK-OV-3 ovarian) | TGI (NCI-H522 lung) | TGI (HOP-62 NSCLC) | TGI (NCI-H226 lung) | TGI (COLO 205 colon) | TGI (UO-31 renal) | TGI (T-47D breast) | TGI (786-0 renal) | TGI (SF-268 CNS) | TGI (SNB-19 CNS) | TGI (HOP-92 NSCLC)
Cc1nc(N/N=C/c2ccccc2Cl)[nH]c(=O)c1CCO | > 100 µM | > 100 µM | 96 µM | 43.4 µM | 34.4 µM | 50.4 µM | > 100 µM | > 100 µM | > 100 µM | > 100 µM | > 100 µM | > 100 µM | > 100 µM | 57.3 µM
CCOc1ccc(N/C(Cl)=C(Cl)\C(=C(\Nc2ccc(OCC)cc2)n2nnc3ccccc32)[N+](=O)[O-])cc1 | 7.4 µM | 3.96 µM | 57.7 µM | > 100 µM | 2.86 µM | > 100 µM | 60.5 µM | 25.4 µM | 23.9 µM | 29.1 µM | 14.2 µM | 32.1 µM | 34.4 µM | 5.56 µM
CN(C)P(=O)(Oc1ccc(CC(NC(=O)OCc2ccccc2)C(=O)OCc2ccccc2)cc1)N(C)C (configuration not stated) | 33 µM | 34.5 µM | 34.5 µM | 33.2 µM | 30.9 µM | 31.7 µM | 52.8 µM | 42.8 µM | 33.3 µM | 52.3 µM | 17.5 µM | 27.8 µM | 38.6 µM | 34.9 µM
Cc1cc(S(=O)(=O)Nc2cc(N)[nH]n2)c(SCc2nc(N)nc(N(C)C)n2)cc1Cl | > 10 µM | > 10 µM | > 10 µM | > 10 µM | > 10 µM | > 10 µM | > 10 µM | > 10 µM | > 10 µM | > 10 µM | > 10 µM | > 10 µM | > 10 µM | > 10 µM
C=C(C)[C@H]1C=C[C@@H](OC(=O)c2cccnc2)[C@@]23CO[C@@](C)([C@H](OC(=O)c4cccnc4)[C@@]4(OC(C)=O)C[C@H](C)[C@H](OCCC)[C@@H]4[C@H]2OC(C)=O)[C@H]13 | > 15 µM | > 15 µM | > 15 µM | > 15 µM | > 15 µM | > 15 µM | > 15 µM | > 15 µM | > 15 µM | > 15 µM | > 15 µM | > 15 µM | > 15 µM | > 15 µM
Nc1ccn(C2CCC(CO)O2)c(=S)n1 (configuration not stated) | > 100 µM | > 100 µM | > 100 µM | > 100 µM | > 100 µM | > 100 µM | > 100 µM | > 100 µM | > 100 µM | > 100 µM | > 100 µM | > 100 µM | > 100 µM | > 100 µM
Cc1ccc(N=Nc2ccc(O)c(CN(C)C)c2)cc1 | 50.2 µM | 28.6 µM | 33.7 µM | 85.3 µM | 32.6 µM | 26.3 µM | 49.4 µM | 35.2 µM | 54.1 µM | 39.5 µM | 54.7 µM | 91.7 µM | > 100 µM | 67.7 µM
CCc1n[nH]c(=O)n1/N=C/c1ccc(C)cc1 | > 100 µM | > 100 µM | > 100 µM | > 100 µM | > 100 µM | > 100 µM | > 100 µM | > 100 µM | > 100 µM | > 100 µM | > 100 µM | > 100 µM | > 100 µM | > 100 µM
N/N=C(\C(=O)Nc1ccc(Cl)cc1Cl)C(c1cnc2ccccc2n1)[N+](=O)[O-] (configuration not stated) | > 100 µM | > 100 µM | > 100 µM | > 100 µM | > 100 µM | > 100 µM | > 100 µM | – | > 100 µM | > 100 µM | > 100 µM | > 100 µM | – | > 100 µM
CCC[C@H](NS(=O)c1ccc(C)cc1)C(C(=O)OCC)=C(c1ccccc1)c1ccccc1 (some centres not stated) | > 100 µM | 33.6 µM | 40 µM | > 100 µM | 55.1 µM | 36.4 µM | 51.6 µM | 46.1 µM | 31.2 µM | 88.6 µM | 35.9 µM | > 100 µM | > 100 µM | 33 µM
CC(=O)Nc1cc2c3c(c1)CCCN3CCC2 | > 100 µM | > 100 µM | > 100 µM | > 100 µM | > 100 µM | – | > 100 µM | > 100 µM | > 100 µM | > 100 µM | > 100 µM | – | > 100 µM | > 100 µM
CC(NC(=O)c1ccccc1)NC(=O)C(C)C(=O)Nc1ccccc1 (configuration not stated) | > 100 µM | – | > 100 µM | > 100 µM | > 100 µM | – | > 100 µM | > 100 µM | > 100 µM | > 100 µM | > 100 µM | > 100 µM | 71.7 µM | > 100 µM
COCCCNC(=O)C1=C(C)NC(C)=C(C(=O)NCCCOC)C1 | – | > 100 µM | > 100 µM | > 100 µM | 27.4 µM | > 100 µM | > 100 µM | > 100 µM | > 100 µM | > 100 µM | > 100 µM | > 100 µM | > 100 µM | > 100 µM
NC(=S)N/N=C1\NC(=O)/C(=C/c2ccc3c(c2)OCO3)S1 | 82.6 µM | 85.2 µM | > 100 µM | > 100 µM | – | 51.5 µM | 78.7 µM | 71.3 µM | > 100 µM | 71.2 µM | > 100 µM | 97.3 µM | 53.6 µM | 56.7 µM
CCOC(=O)[C@@]12C3C=CC(CC3)[C@]1(C(=O)c1ccccc1)C(=O)C(=O)N2c1ccccc1 (some centres not stated) | > 100 µM | – | > 100 µM | > 100 µM | > 100 µM | > 100 µM | – | > 100 µM | > 100 µM | > 100 µM | > 100 µM | > 100 µM | > 100 µM | > 100 µM
N#C/C(C(=O)Nc1ccc(Cl)cc1)=C(/N)N1CCCCC1 | > 100 µM | > 100 µM | > 100 µM | > 100 µM | – | > 100 µM | > 100 µM | > 100 µM | > 100 µM | > 100 µM | > 100 µM | – | > 100 µM | > 100 µM
